These compounds were tested on rat spinal dorsal root ganglion (DRG) neurons (assay: High potassium-induced rise in intracellular calcium concentration of rat DRG neurons (Cal-520 AM fluorescence imaging)). Conditions: Rattus norvegicus, DRG neuron; compound 30 μmol/L; high potassium treatment (KCl 30 mmol/L); average of 60 to 250 cells per group; vehicle group = 0%; read-out: Inhibition rate (%) of a rise in intracellular calcium concentration.
Format: cell-based
From the text: Example 4 Effect of the cyclic amine derivative (I) or a pharmacologically acceptable salt thereof on high potassium-induced rise in intracellular calcium concentration of rat spinal dorsal root ganglion (DRG) neurons:
The cyclic amine derivative (I) or a pharmacologically acceptable salt thereof was examined for its inhibitory effect on high potassium-induced rise in intracellular calcium concentration of DRG neurons.
The SD rats (4 to 6 weeks old, male; Charles River Laboratories Japan, Inc.) were anesthetized and euthanized by bloodletting from abdominal aorta. After incision of the dorsal part, the spinal column was excised and cooled in ice. The dorsal column was cut off, and the spinal cord was removed from the ventral side of the spinal column. Then, DRGs (L4 to L6) with nerve fibers were excised with tweezers. The excised DRGs were dipped in ice-cold Leibovitz's L-15 medium (Thermo Fisher Scientific), and the nerve fibers were removed under a stereoscopic microscope to separate DRG.
The separated DRGs were made fine slits with ophthalmic scissors, followed by incubation at 37° C. for 20 minutes with Collagenase A (Roche Molecular Systems). After centrifugation at 200×g for 5 minutes, the supernatant was removed, and 0.05% Trypsin-EDTA (Thermo Fisher Scientific) was added, followed by incubation at 37° C. for 5 minutes. DMEM (Thermo Fisher Scientific) containing 1% penicillin-streptomycin (Thermo Fisher Scientific) and 10% fetal bovine serum (Thermo Fisher Scientific) was added thereto. After centrifugation at 200×g for 5 minutes, the supernatant was removed. After the removal of the supernatant, Neurobasal-A Medium (Thermo Fisher Scientific) containing 1% penicillin-streptomycin and 2% B-27 (Thermo Fisher Scientific), which was prepared as a DRG nerve culture medium, was added. Then, the cells were dissociated by micropipetting. The dissociated cells were passed through a 70 μm cell strainer (Greiner) and centrifuged at 200×g for 5 minutes. After the centrifugation, the supernatant was removed, and the cells were suspended by the culture medium. This cell suspension was inoculated to a polylysine-coated 35 mm dish (Matsunami Glass Ind., Ltd.) coated in advance with laminin (Sigma-Aldrich), cultured overnight at 37° C. under 5% CO2, and then used in the measurement of change in intracellular calcium concentration.
Cal-520, AM(registered trademark) (AAT Bioquest) was used as a calcium fluorescent dye. The medium was removed from the cells cultured in the dish, and the cells were washed twice with a perfusate. Then, a Cal-520, AM solution adjusted to 4 μmol/L was added thereto, and the cells were cultured at 37° C. for 1 to 1.5 hours under 5% CO2. The perfusate was an aqueous solution containing NaCl (140 mmol/L), KCl (5 mmol/L), CaCl2)·2H2O (1.2 mmol/L), MgCl2.6H2O (2 mmol/L), D(+)-glucose (14 mmol/L) and HEPES (10 mmol/L), adjusted to pH 7.4. Then, the dish was washed by perfusion at 2 mL/min for 10 minutes.
Change in intracellular calcium concentration was measured by analyzing with analytical software, change in fluorescence intensity of the cells loaded with the calcium fluorescent dye in images taken under a confocal laser microscope system (Nikon Instech Co., Ltd.). The laser wavelength was 488 nm, and the images were acquired at intervals of 57 to 60 sheets per minute.
For the induction of neuronal excitation, a treatment with a high potassium solution (hereinafter, “high potassium treatment”) was performed to induce a rise in intracellular calcium concentration by the depolarization of cell membranes. The high potassium treatment and a treatment with the cyclic amine derivative (I) or a pharmacologically acceptable salt thereof (compounds 1 to 10, compound of Comparative Example 1 and compound of Comparative Example 2) (hereinafter, “compound treatment”) of the cells were performed by the perfusion and replacement of a solution. The perfusion rate was controlled to 2 mL/min using a tube pump. […]

Going from `CN(C)[C@@H]1CCCN(C(=O)CC(O)c2nccn2C)C1` (stereo partly shown) [Compound 5] to `CCCn1ccnc1C(O)CC(=O)N1CCC(N(C)C)CC1` (stereo not shown) [Compound 7, 1-(4-(dimethylamino)piperidin-1-yl)-3-(1-propyl-1H-imidazol-2-yl)-3-hydroxypropan-1-one], the inhibition at 30 µM falls from 39% to 15.4%.

First: CN1CCN(C2CCN(C(=O)CC(O)c3nccn3C)CC2)CC1 (stereo not shown) [Compound 6, 3-hydroxy-3-(1-methyl-1H-imidazol-2-yl)-1-(4-(4-methylpipzerazin-1-yl)piperidin-1-yl)propan-1-one]
Second: COCCn1ccnc1C(O)CC(=O)N1CCC(N(C)C)CC1 (stereo not shown) [Compound of Comparative Example 1, 1-(4-(dimethylamino)piperidin-1-yl)-3-(1-(2-methoxyethyl)-1H-imidazol-2-yl)-3-hydroxypropan-1-one, reference compound]
The inhibition at 30 µM of the first is higher: 23.3% for the first, -3.3% for the second.

Going from `CN(C)C1CCN(C(=O)CC(O)c2ncc(Cl)n2C)CC1` (stereo not shown) [Compound 9, 3-(5-chloro-1-methyl-1H-imidazol-2-yl)-1-(4-(dimethylamino)piperidin-1-yl)-3-hydroxypropan-1-one] to `CC(C)n1ccnc1C(O)CC(=O)N1CCC(N(C)C)CC1` (stereo not shown) [Compound 10, 1-(4-(dimethylamino)piperidin-1-yl)-3-(1-isopropyl-1H-imidazol-2-yl)-3-hydroxypropan-1-one], the inhibition at 30 µM falls from 7.1% to 5.9%.

Compound `CN(C)C1CCN(C(=O)CC(O)c2nccn2CCC(F)(F)F)CC1` (stereo not shown) [Compound of Comparative Example 2, 1-(4-(dimethylamino)piperidin-1-yl)-3-(1-(3,3,3-trifluoropropyl)-1H-imidazol-2-yl)-3-hydroxypropan-1-one, reference compound] has an inhibition at 30 µM of -1.1%.

Same assay, conditions: Rattus norvegicus, DRG neuron; compound 30 μmol/L; high potassium treatment (KCl 32.5 mmol/L or 30 mmol/L); average of 106 to 262 cells per group; vehicle group = 0%; read-out: Inhibition rate (%) of a rise in intracellular calcium concentration

Going from `CCn1ccnc1C(O)CC(=O)N1CCC(N(C)C)CC1` (stereo not shown) [Compound 1, 1-(4-(dimethylamino)piperidin-1-yl)-3-(1-ethyl-1H-imidazol-2-yl)-3-hydroxypropan-1-one] to `CN(C)C1CCN(C(=O)C[C@H](O)c2nccn2C)CC1` [Compound 2, (S)-1-(4-(dimethylamino)piperidin-1-yl)-3-hydroxy-3-(1-methyl-1H-imidazol-2-yl)propan-1-one], the inhibition at 30 µM falls from 35.5% to 19.3%.

First: CN(C)C1CCN(C(=O)CC(O)c2nccn2CC(F)(F)F)CC1 (stereo not shown) [Compound 3, 1-(4-(dimethylamino)piperidin-1-yl)-3-hydroxy-3-(1-(2,2,2-trifluoroethyl)-1H-imidazol-2-yl)propan-1-one]
Second: CN(C)C1CCN(C(=O)CCc2nccn2C)CC1 [Compound 4, 1-(4-(dimethylamino)piperidin-1-yl)-3-(1-methyl-1H-imidazol-2-yl)propan-1-onesulfatemonohydrate]
The inhibition at 30 µM of the first is higher: 17.8% for the first, 11.9% for the second.

Same assay, conditions: compound 30 μmol/L; KCl 30 mmol/L; compared to vehicle treatment group; Table 5 experiment

With `COCCn1ccnc1C(O)CC(=O)N1CCC(N(C)C)CC1` (stereo not shown) [Compound of Comparative Example 1, 1-(4-(dimethylamino)piperidin-1-yl)-3-(1-(2-methoxyethyl)-1H-imidazol-2-yl)-3-hydroxypropan-1-one, reference compound] the “Inhibition of high potassium-induced rise in intracellular calcium concentration, in words” value was “not inhibited”.
For `CN(C)C1CCN(C(=O)CC(O)c2nccn2CCC(F)(F)F)CC1` (stereo not shown) [Compound of Comparative Example 2, 1-(4-(dimethylamino)piperidin-1-yl)-3-(1-(3,3,3-trifluoropropyl)-1H-imidazol-2-yl)-3-hydroxypropan-1-one, reference compound], the “Inhibition of high potassium-induced rise in intracellular calcium concentration, in words” value was “not inhibited”.
